Literature values in patent publication US20210361700A1 (priority 2020, published 2021).

Test system: influenza
Conditions: older mice

In the case of Vitamin E, the “resistance to and pathogenesis of influenza” value is listed as “Increases resistance to and”.
